Measurements as given in ChEMBL document CHEMBL4130467, “Isolation and Structural Characterization of Echinocystic Acid Triterpenoid Saponins from the Australian Medicinal and Food Plant Acacia ligulata” (J Nat Prod, 2017).

Legend:
HFF = experiment: Cytotoxicity against HFF assessed as reduction in cell viability after 48 hrs by sulforhodamine B assay; type: cell-based; conditions: Homo sapiens
SK-MEL-28 = experiment: Cytotoxicity against human SK-MEL-28 cells assessed as reduction in cell viability after 48 hrs by sulforhodamine B assay; type: functional, cell-based; conditions: SK-MEL-28, 48 h

CC(=O)N[C@H]1[C@H](O[C@H]2CC[C@]3(C)[C@H]4CC=C5[C@@H]6CC(C)(C)CC[C@]6(C(=O)O[C@@H]6OC[C@H](O)[C@H](O)[C@H]6O[C@@H]6O[C@@H](C)[C@H](O[C@@H]7O[C@@H](CO)[C@H](O)[C@H]7O)[C@@H](O[C@@H]7OC[C@@H](O)[C@H](O)[C@H]7O)[C@H]6O)[C@H](O)C[C@@]5(C)[C@]4(C)CC[C@H]3C2(C)C)O[C@H](CO)[C@@H](O[C@@H]2O[C@H](CO)[C@@H](O)[C@H](O)[C@H]2O)[C@@H]1O
IC50 (HFF): 14.2 µM
IC50 (SK-MEL-28): 15 µM

CC(=O)N[C@H]1[C@H](O[C@H]2CC[C@]3(C)[C@H]4CC=C5[C@@H]6CC(C)(C)CC[C@]6(C(=O)O[C@@H]6OC[C@H](O)[C@H](O)[C@H]6O[C@@H]6O[C@@H](C)[C@H](O[C@@H]7O[C@@H](COC(C)=O)[C@H](O)[C@H]7O)[C@@H](O[C@@H]7OC[C@@H](O)[C@H](O)[C@H]7O)[C@H]6O)[C@H](O)C[C@@]5(C)[C@]4(C)CC[C@H]3C2(C)C)O[C@H](CO)[C@@H](O[C@@H]2O[C@H](CO)[C@@H](O)[C@H](O)[C@H]2O)[C@@H]1O
IC50 (HFF): 13.4 µM
IC50 (SK-MEL-28): 25 µM
